20 molecules from PMC6968587, “Discovery of 3-alkyl-5-aryl-1-pyrimidyl-1H-pyrazole derivatives as a novel selective inhibitor scaffold of JNK3” (Journal of Enzyme Inhibition and Medicinal Chemistry, 2019) can be followed below.

Molecules are shown by their SMILES.

One assay deals with T1, JNK3 (Homo sapiens, UniProt P53779). Description: JNK3 enzymatic inhibitory activity (IC50). It counts as biochemical.
T1 sequence (P53779 whole entry): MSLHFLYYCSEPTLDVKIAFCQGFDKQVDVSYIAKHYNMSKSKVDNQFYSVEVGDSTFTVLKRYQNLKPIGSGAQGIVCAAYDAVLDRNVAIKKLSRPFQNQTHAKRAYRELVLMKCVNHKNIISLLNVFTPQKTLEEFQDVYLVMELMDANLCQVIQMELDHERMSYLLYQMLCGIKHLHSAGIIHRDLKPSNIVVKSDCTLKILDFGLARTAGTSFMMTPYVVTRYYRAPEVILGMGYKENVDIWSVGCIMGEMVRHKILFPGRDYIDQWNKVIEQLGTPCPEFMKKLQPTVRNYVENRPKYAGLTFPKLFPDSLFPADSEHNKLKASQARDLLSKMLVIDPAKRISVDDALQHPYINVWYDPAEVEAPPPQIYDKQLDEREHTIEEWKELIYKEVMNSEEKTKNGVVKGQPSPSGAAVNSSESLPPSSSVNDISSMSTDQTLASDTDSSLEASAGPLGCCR
Details: not given
An excerpt:
In an effort to reduce the molecular weight, the piperidine ring was diversified into pyrrolidine and azetidine with less carbon atoms.
In turn, `N#CCc1cc(-c2ccc(Cl)c(Cl)c2)n(-c2ccnc(N[C@H]3CCN(C(=O)C4CC4)C3)n2)n1` [9a] displayed an IC50 of 3.11 µM.

Take `N#CCc1cc(-c2ccc(Cl)c(Cl)c2)n(-c2ccnc(N[C@@H]3CCN(C(=O)C4CC4)C3)n2)n1` [8a, (R)-2-(1-(2-((1-(cyclopropanecarbonyl)pyrrolidin-3-yl)amino)pyrimidin-4-yl)-5-(3,4-dichlorophenyl)-1H-pyrazol-3-yl)acetonitrile]: the IC50 worked out at 0.227 µM.

The same assay, now with this note: enzymatic activity, Table 1; read-out: JNK3 IC50.
`N#CCc1cc(-c2ccc3ccccc3c2)n(-c2ccnc(N[C@H]3CCCN(C(=O)C4CC4)C3)n2)n1` [7b]: the concentration for half-maximal inhibition (IC50) amounted to 0.824 µM.

On to `N#CCc1cc(-c2ccc3c(c2)OCO3)n(-c2ccnc(NC3CN(C(=O)C4CC4)C3)n2)n1` [10c], for which the IC50 is 5.58 µM.

With `N#CCc1cc(-c2cccc([N+](=O)[O-])c2)n(-c2ccnc(N[C@@H]3CCN(C(=O)C4CC4)C3)n2)n1` [8e], the half-inhibitory concentration (IC50) was over 10 µM.

Regarding `N#CCc1cc(-c2ccc3ccccc3c2)n(-c2ccnc(NC3CN(C(=O)C4CC4)C3)n2)n1` [10b], the half-inhibitory concentration (IC50) turned out to be 2.07 µM.

Turning to `N#CCc1cc(-c2ccc3c(c2)OCO3)n(-c2ccnc(N[C@H]3CCN(C(=O)C4CC4)C3)n2)n1` [9c], the IC50 was found to be 8.57 µM.

With `N#CCc1cc(-c2ccc3ccccc3c2)n(-c2ccnc(N[C@H]3CCN(C(=O)C4CC4)C3)n2)n1` [9b], the 50% inhibitory concentration (IC50) was 2.9 µM.

As for `COC(=O)Cc1cc(-c2ccc(Cl)c(Cl)c2)n(-c2ccnc(N[C@H]3CCCN(C(=O)C4CC4)C3)n2)n1` [12a], the IC50 amounted to 0.903 µM.

For the molecule `N#CCc1cc(-c2ccc([N+](=O)[O-])cc2)n(-c2ccnc(N[C@@H]3CCN(C(=O)C4CC4)C3)n2)n1` [8f], the half-maximal inhibitory concentration (IC50) amounted to 7.89 µM.

With `N#CCc1cc(-c2ccc3ccccc3c2)n(-c2ccnc(N[C@@H]3CCN(C(=O)C4CC4)C3)n2)n1` [8b], the 50% inhibitory concentration (IC50) worked out at 0.361 µM.

Take `N#CCc1cc(-c2ccc([N+](=O)[O-])cc2)n(-c2ccnc(N[C@H]3CCCN(C(=O)C4CC4)C3)n2)n1` [7f]: the IC50 was over 10 µM.

On to `N#CCc1cc(-c2ccc3c(c2)OCO3)n(-c2ccnc(N[C@H]3CCCN(C(=O)C4CC4)C3)n2)n1` [7c], for which the 50% inhibitory concentration (IC50) was 4.6 µM.

As to `N#CCc1cc(-c2ccc3c(c2)CCO3)n(-c2ccnc(N[C@H]3CCCN(C(=O)C4CC4)C3)n2)n1` [7d], the concentration for half-maximal inhibition (IC50) was found to be 7.9 µM.

Turning to `NC(=O)Cc1cc(-c2ccc(Cl)c(Cl)c2)n(-c2ccnc(N[C@H]3CCCN(C(=O)C4CC4)C3)n2)n1` [11a], the IC50 was determined as 1.46 µM.

For `N#CCc1cc(-c2ccc3c(c2)CCO3)n(-c2ccnc(N[C@H]3CCN(C(=O)C4CC4)C3)n2)n1` [9d], the IC50 was found to be 3.25 µM.

For `N#CCc1cc(-c2ccc(Cl)c(Cl)c2)n(-c2ccnc(N[C@H]3CCCN(C(=O)C4CC4)C3)n2)n1` [7a], the IC50 worked out at 0.635 µM.

As to `N#CCc1cc(-c2ccc3c(c2)OCO3)n(-c2ccnc(N[C@@H]3CCN(C(=O)C4CC4)C3)n2)n1` [8c], the IC50 was found to be 2.18 µM.

Regarding `N#CCc1cc(-c2ccc3c(c2)CCO3)n(-c2ccnc(N[C@@H]3CCN(C(=O)C4CC4)C3)n2)n1` [8d], the IC50 came out at 4.42 µM.

Take `N#CCc1cc(-c2ccc(Cl)c(Cl)c2)n(-c2ccnc(NC3CN(C(=O)C4CC4)C3)n2)n1` [10a]: the IC50 turned out to be 2.84 µM.

A further assay deals with T2, GSK3β (Homo sapiens, UniProt P49841).
T2 construct: purchased Reaction Biology Corp. (Kinase HotSpot service)
T2 sequence (P49841 whole entry): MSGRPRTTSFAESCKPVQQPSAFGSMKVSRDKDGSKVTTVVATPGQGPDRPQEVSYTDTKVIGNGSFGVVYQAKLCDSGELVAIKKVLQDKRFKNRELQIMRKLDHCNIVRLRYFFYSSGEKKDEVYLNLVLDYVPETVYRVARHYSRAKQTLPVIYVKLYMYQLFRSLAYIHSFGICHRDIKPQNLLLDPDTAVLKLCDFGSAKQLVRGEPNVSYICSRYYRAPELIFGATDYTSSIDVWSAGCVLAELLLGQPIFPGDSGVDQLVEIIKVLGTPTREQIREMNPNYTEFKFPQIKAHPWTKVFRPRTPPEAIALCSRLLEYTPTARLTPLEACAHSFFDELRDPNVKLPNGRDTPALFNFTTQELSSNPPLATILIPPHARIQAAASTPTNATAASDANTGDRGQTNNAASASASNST
Description: GSK3β enzymatic activity (IC50), Reaction Biology Kinase HotSpot. The class given is biochemical. As to conditions: Table 2, Kinase HotSpot service; read-out: Compound IC50* on GSK3β.
In the case of `N#CCc1cc(-c2ccc(Cl)c(Cl)c2)n(-c2ccnc(N[C@H]3CCCN(C(=O)C4CC4)C3)n2)n1` [7a], the IC50 was determined as 3.96 µM.

Staying with this assay, now noted: ratio of IC50 GSK3β / JNK3.
With `N#CCc1cc(-c2ccc(Cl)c(Cl)c2)n(-c2ccnc(N[C@H]3CCCN(C(=O)C4CC4)C3)n2)n1` [7a], the “selectivity for JNK3 over GSK3β in terms of IC50” value was “six fold selective”.

A further assay concerns the target T1, JNK3. Description: Kinase panel screening, single dose 10 μM, in duplicate: JNK3. It counts as biochemical. As to conditions: read-out: inhibitory activity on JNK3. The procedure: (§1) Next, we used kinase panel screening in duplicate for compound 7a over 38 different kinases at a single-dose concentration of 10 μM (Table 2). The compound was indeed a selective JNK3 inhibitor with an excellent selectivity profile.
Take `N#CCc1cc(-c2ccc(Cl)c(Cl)c2)n(-c2ccnc(N[C@H]3CCCN(C(=O)C4CC4)C3)n2)n1` [7a]: the inhibition at 10 µM is 90%.

In the next assay the test system is 38 selected protein kinases. The assay is described as follows: Kinase panel screening, single dose 10 μM, in duplicate: other kinases of the 38-kinase panel. It counts as biochemical.
Details: not given
How it is done: as §1
As to `N#CCc1cc(-c2ccc(Cl)c(Cl)c2)n(-c2ccnc(N[C@H]3CCCN(C(=O)C4CC4)C3)n2)n1` [7a], the “inhibition activity for most other kinases except GSK3β” value is given as “less than 20%”.
